Assay results: US10544146B2, “Bicyclic compounds and their use as antibacterial agents and β-lactamase inhibitors” (priority 2011, dated 2020)

Tests used:
Type in all cases: cell-based
[1] = test system: E. coli JMI 4103; assay: MIC, antibacterial and synergistic activity; settings: substance alone
[2] = test system: E. coli JMI 10770; assay: MIC, antibacterial and synergistic activity; settings: substance alone
[3] = test system: E. coli JMI 11103; assay: MIC, antibacterial and synergistic activity; settings: substance alone
[4] = test system: E. coli JMI 10768; assay: MIC, antibacterial and synergistic activity; settings: substance alone
[5] = test system: K. pneumo JMI 4106; assay: MIC, antibacterial and synergistic activity; settings: substance alone
[6] = test system: K. pneumo JMI 2681; assay: MIC, antibacterial and synergistic activity; settings: substance alone
[7] = test system: K. pneumo JMI 2674; assay: MIC, antibacterial and synergistic activity; settings: substance alone
[8] = test system: A. baumanii JMI 2659; assay: MIC, antibacterial and synergistic activity; settings: substance alone; for MIC: Acinetobacter baumannii, JMI2659
Description: (§1) In the Tables 10-12, compounds of the present invention were tested in combination with various antibiotics against metallo β-lactamase producing bacteria.

[9] = test system: P. aerug JMI 149; assay: MIC, antibacterial and synergistic activity; settings: substance alone
Description: as §1

[10] = test system: E. coli JMI 10767; assay: MIC, antibacterial and synergistic activity; settings: substance alone
Description: as §1

[11] = test system: K. pneumo JMI 2697; assay: MIC, antibacterial and synergistic activity; settings: substance alone
Description: as §1

[12] = test system: E. coli JMI 2692; assay: MIC, antibacterial and synergistic activity; settings: substance alone
Description: as §1

[13] = test system: E. coli ATCC 25922; assay: MIC, antibacterial and synergistic activity
Description: as §1

[14] = test system: K. pneumo JMI 2693; assay: MIC, antibacterial and synergistic activity; settings: substance alone
Description: as §1

[15] = test system: E. coli JMI 4080; assay: MIC, antibacterial and synergistic activity; settings: substance alone
[16] = test system: P. aerug JMI 2686; assay: MIC, antibacterial and synergistic activity; settings: substance alone
[17] = test system: metallo β-lactamase producing bacteria; assay: MIC in combination with various antibiotics against metallo β-lactamase producing bacteria (Tables 10-12); settings: substance alone
Description: as §1

[18] = test system: K. pneumo JMI 4088; assay: MIC, antibacterial and synergistic activity; settings: substance alone
[19] = test system: K. pneumo JMI 2699; assay: MIC, antibacterial and synergistic activity; settings: substance alone
Description: as §1

[20] = test system: E. coli JMI 2671; assay: MIC, antibacterial and synergistic activity; settings: substance alone
Description: as §1

[21] = test system: E. cloacae JMI 36; assay: MIC, antibacterial and synergistic activity; settings: substance alone
Description: as §1

[22] = test system: K. pneumo JMI 4109; assay: MIC, antibacterial and synergistic activity; settings: substance alone
[23] = test system: K. pneumo JMI 2673; assay: MIC, antibacterial and synergistic activity; settings: substance alone
[24] = test system: E. coli JMI 2665; assay: MIC, antibacterial and synergistic activity; settings: substance alone
[25] = E. coli JMI 10770, CTX-M15 (Hyper ESBL)
[26] = E. coli JMI 11103, CTX-M15 (Intermediate ESBL)
[27] = E. coli JMI 10768, CTX-M15 (Weak ESBL)
[28] = K. pneumo JMI 4106, KPC-3, TEM-1, SHV-12, SHV-141
[29] = K. pneumo JMI 2681, Oxa-48 (Cpase)
[30] = K. pneumo JMI 2681, enzyme Oxa-48 (Cpase)
[31] = K. pneumo JMI 2674, CTX-M15 (ESBL)
[32] = A. baumanii JMI 2659, Ges-14 (Cpase)
[33] = A. baumanii JMI 2659, enzyme Ges-14 (Cpase)
[34] = P. aerug JMI 149, enzyme Bla+++D+
[35] = K. pneumo JMI 2697, IMP-4 (Cpase)
[36] = K. pneumo JMI 2693, NDM-1 (Cpase)
[37] = P. aerug JMI 2686, KPC-2 (Cpase)
[38] = P. aerug JMI 2686, enzyme KPC-2 (Cpase)
[39] = K. pneumo JMI 4088, KPC-3 (Cpase)
[40] = K. pneumo JMI 4088, enzyme KPC-3 (Cpase)

C[C@H]1[C@H](NC(=O)/C(=N\OC(C)(C)C(=O)O)c2csc(N)n2)C(=O)N1S(=O)(=O)O [Aztreonam, aztreonam]
0.25 µg/mL: MIC ([13]; Escherichia coli, ATCC25922, E. coli ATCC 25922, enzyme Wt; substance alone)
4 µg/mL: MIC ([17]; Klebsiella aerogenes, Enterobacter aerogenes isolate 47683, VIM-12)
≤1 µg/mL: MIC alone ([10]; E. coli JMI 10767, Wt)
≤ 0.12 µg/mL: MIC ([17]; Enterobacter cloacae, Enterobacter cloacae isolate 1874, IMP-21)
16 µg/mL: MIC alone [3, 26] | MIC ([17]; Escherichia coli, Escherichia coli isolate 13, IMP-1)
32 µg/mL: MIC ([3]; Escherichia coli, JMI11103, E. coli JMI 11103, CTX-M15 (Intermediate ESBL)) | MIC alone [7, 31] | MIC ([17]; Enterobacter cloacae, Enterobacter cloacae isolate 3686, IMP-1) | MIC ([17]; Providencia stuartii, Providencia stuartii isolate 26582, VIM-1)
512 µg/mL: MIC alone [5, 28] | MIC alone ([5]; K. pneumo JMI 4106, enzyme KPC-3, TEM-1, SHV-12, SHV-141) | MIC [6, 29] | MIC [6, 30] | MIC [8, 32] | MIC [8, 33] | MIC alone ([9]; P. aerug JMI 149, Bla+++D+) | MIC [9, 34] | MIC [16, 37] | MIC [16, 38] | MIC alone [18, 39] | MIC alone [18, 40]
8 µg/mL: MIC alone [4, 27] | MIC ([17]; Enterobacter cloacae, Enterobacter cloacae isolate 1280, VIM-5) | MIC ([17]; Klebsiella oxytoca, Klebsiella oxytoca isolate 31141, VIM-23)
64 µg/mL: MIC alone [2, 25] | MIC ([15]; Escherichia coli, JMI4080, E. coli JMI 4080, Tem-10) | MIC ([17]; Enterobacter cloacae, Enterobacter cloacae isolate 25, IMP-4) | MIC ([17]; Enterobacter cloacae, Enterobacter cloacae isolate 1471, VIM-1) | MIC ([17]; Klebsiella pneumoniae, Klebsiella pneumoniae isolate 38, NDM-1)
>512 µg/mL: MIC alone [16, 37]
> 512 µg/mL: MIC ([1]; Escherichia coli, JMI4103, E. coli JMI 4103, KPC-2, Tem-1, CMY-Type) | MIC [5, 28] | MIC [11, 35] | MIC ([12]; Escherichia coli, JMI2692, E. coli JMI 2692, NDM-1, TEM-1, CTX-M-15) | MIC [14, 36] | MIC [18, 39]

C[C@@H](O)[C@H]1C(=O)N2C(C(=O)O)=C(S[C@@H]3CN[C@H](C(=O)N(C)C)C3)[C@H](C)[C@H]12 [Meropenem, meropenem]
4 µg/mL: MIC alone ([9]; P. aerug JMI 149, Bla+++D+) | MIC alone [9, 34] | MIC alone ([17]; Enterobacter cloacae isolate 1874, IMP-21) | MIC alone ([17]; Escherichia coli isolate 13, IMP-1)
512 µg/mL: MIC alone [16, 37] | MIC alone [16, 38] | MIC alone [18, 39] | MIC alone [18, 40]
≤1 µg/mL: MIC alone [2, 25] | MIC alone ([2]; E. coli JMI 10770, enzyme CTX-M15 (Hyper ESBL)) | MIC alone [3, 26] | MIC alone ([3]; E. coli JMI 11103, enzyme CTX-M15 (Intermediate ESBL)) | MIC alone [4, 27] | MIC alone ([4]; E. coli JMI 10768, enzyme CTX-M15 (Weak ESBL)) | MIC alone [7, 31] | MIC alone ([7]; K. pneumo JMI 2674, enzyme CTX-M15 (ESBL)) | MIC alone ([10]; E. coli JMI 10767, Wt) | MIC alone ([10]; E. coli JMI 10767, enzyme Wt) | MIC alone ([21]; E. cloacae JMI 36, P99) | MIC alone ([21]; E. cloacae JMI 36, enzyme P99) | MIC alone ([15]; E. coli JMI 4080, Tem-10) | MIC alone ([15]; E. coli JMI 4080, enzyme Tem-10) | MIC alone ([22]; K. pneumo JMI 4109, SHV-1, SHV-12) | MIC alone ([22]; K. pneumo JMI 4109, enzyme SHV-1, SHV-12) | MIC alone ([23]; K. pneumo JMI 2673, CTX-M14 (ESBL)) | MIC alone ([23]; K. pneumo JMI 2673, enzyme CTX-M14 (ESBL)) | MIC alone ([24]; E. coli JMI 2665, CMY-2 (Plasmid Cpase)) | MIC alone ([24]; E. coli JMI 2665, enzyme CMY-2 (Plasmid Cpase))
64 µg/mL: MIC alone ([1]; E. coli JMI 4103, KPC-2, Tem-1, CMY-Type) | MIC alone ([1]; E. coli JMI 4103, enzyme KPC-2, Tem-1, CMY-Type) | MIC alone [6, 29] | MIC alone [6, 30] | MIC alone [8, 32] | MIC alone [8, 33] | MIC alone [11, 35] | MIC alone ([11]; K. pneumo JMI 2697, enzyme IMP-4 (Cpase)) | MIC alone ([20]; E. coli JMI 2671, VIM-19 (Cpase)) | MIC alone ([20]; E. coli JMI 2671, enzyme VIM-19 (Cpase)) | MIC alone ([17]; Enterobacter aerogenes isolate 8397, VIM-1) | MIC alone ([17]; Escherichia coli isolate 53749, NDM-1)
256 µg/mL: MIC alone ([12]; E. coli JMI 2692, NDM-1, TEM-1, CTX-M-15) | MIC alone ([12]; E. coli JMI 2692, enzyme NDM-1, TEM-1, CTX-M-15)
16 µg/mL: MIC alone ([17]; Citrobacter freundii isolate 49469, NDM-1) | MIC alone ([17]; Enterobacter cloacae isolate 10, IMP-26) | MIC alone ([17]; Enterobacter cloacae isolate 25, IMP-4)
2 µg/mL: MIC alone ([17]; Enterobacter cloacae isolate 4, VIM-6) | MIC alone ([17]; Enterobacter cloacae isolate 1068, VIM-2) | MIC alone ([17]; Enterobacter cloacae isolate 1471, VIM-1) | MIC alone ([17]; Klebsiella oxytoca isolate 31141, VIM-23)
32 µg/mL: MIC alone ([19]; K. pneumo JMI 2699, VIM-1, CTX-M3) | MIC alone ([19]; K. pneumo JMI 2699, enzyme VIM-1, CTX-M3) | MIC alone ([17]; Enterobacter cloacae isolate 53477, NDM-1) | MIC alone ([17]; Escherichia coli isolate 17, NDM-1) | MIC alone ([17]; Klebsiella oxytoca isolate 24825, IMP-26) | MIC alone ([17]; Klebsiella pneumoniae isolate 38, NDM-1)
8 µg/mL: MIC alone [14, 36] | MIC alone ([14]; K. pneumo JMI 2693, enzyme NDM-1 (Cpase)) | MIC alone ([17]; Enterobacter aerogenes isolate 47683, VIM-12) | MIC alone ([17]; Enterobacter cloacae isolate 3686, IMP-1) | MIC alone ([17]; Escherichia coli isolate 49, NDM-1) | MIC alone ([17]; Klebsiella pneumoniae isolate 16, VIM-5) | MIC alone ([17]; Serratia marcescens isolate 35, IMP-4) | MIC alone ([17]; Serratia marcescens isolate 36098, IMP-19)
1 µg/mL: MIC alone ([17]; Providencia stuartii isolate 26582, VIM-1)
0.06 µg/mL: MIC alone ([13]; E. coli ATCC 25922, enzyme Wt; substance alone) | MIC alone ([13]; E. coli ATCC 25922; enzyme Wt; substance alone)
